The values below come from patent US10765675B2, “Compositions and methods for treating Ewing family tumors” (priority 2015, dated 2020).

In one series the test system is TC-32 cells. Description: cells. To be noted: Homo sapiens, TC-32, 24 h, read-out: EC50 (concentration of drug that inhibits growth of the tumor cells by 50% as compared to vehicle-treated control). The text has this:
(§1) The combination index (CI) accounts for the dose response of single drugs to determine the combination effect. […] Enzyme Regul. 22:27-55. The equation for calculating CI is as follows: […]

The test system of another series is TC-71 cells. As to the kind of experiment: cells. The conditions noted are these: Homo sapiens, TC-71, 24 h, read-out: EC50 (concentration of drug that inhibits growth of the tumor cells by 50% as compared to vehicle-treated control).
Description: as §1

Another series relates to MB231-Bo cancer cells. To be noted: same doses as tested on TC-32 and TC-71 cells.
For series [1] the following is noted: metformin 500-1000 mg/day; cited from earlier work.
In a further series the test system is 3T3 fibroblast cells. The conditions noted are these: same doses as tested on TC-32 and TC-71 cells.
The next series relates to sarcomas. The conditions noted are these: cited from earlier work.
Series [2] relates to DNA damage and DNA repair pathway genes in TC-32 cells. To be noted: 12 h.
Description: (§2) Housekeeping genes were included on the array to normalize RNA amounts.
Series [3] concerns DNA damage and DNA repair pathway genes in TC-71 cells. The conditions noted are these: 12 h.
Description: as §2

Molecules are shown by their SMILES. Where a name gives a salt, the structure may show the parent alone.

Description for 3T3 fibroblast cells: (§3) The TC-32 cell line was derived from a newly diagnosed PNET patient and the TC-71 cell line was derived from a tumor recurrent after chemotherapy in a Ewing's sarcoma patient.
(§4) The cells were cultured in DMEM media supplemented with 10% FBS, 1% L-glutamate, 1% sodium pyruvate, 1% penicillin/streptomycin, and 1% non-essential amino acids in a humidified atmosphere at 37° C. and in 5% CO2. The ratio of cells to well surface and media volume was kept constant in all experiments.
(§5) Treated cells were imaged with an IVIS200 system (Xenogen Corporation, Alameda, Calif.) using the bioluminescent imaging function. An average of three kinetic bioluminescent acquisitions was obtained within 5 min Regions of interest were automatically drawn over wells and quantified with Living Image Software version 2.50.1. Data was analyzed based on total photon flux emission minus the background photon flux of blank wells. Three separate experiments were performed, with six replicate wells for each data point.
Description for MB231-Bo cancer cells: as §3, §4, §5

In the case of `CN(C)C(=N)N=C(N)N` [metformin, Metformin hydrochloride], the EC50 was determined as 11.8 mM in the series on TC-32 cells and 11.6 mM in the series with TC-71 cells. Further, the Cytotoxicity result with MB231-Bo cancer cells and in the series on 3T3 fibroblast cells was “did not show any cytotoxicity” each time. In addition, the Plasma levels entry in series [1] is reported as “about 1.1 mg/L”. Besides, in series [1], the “Plasma levels, molar equivalent” value was 7 µM.

In the case of `COc1cccc2c1C(=O)c1c(O)c3c(c(O)c1C2=O)C[C@@](O)(C(=O)CO)C[C@@H]3O[C@H]1C[C@H](N)[C@H](O)[C@H](C)O1` [doxorubicin], the “Side-effects limiting clinical utility” value in the series on sarcomas (clinical use) is “irreversible cardiac toxicity”. In addition, the “Share of sarcomas that respond to the drug” value in the series on sarcomas (standard systemic therapy) was 20%.

`Cc1ccc(NC(=O)c2ccc(CN3CCN(C)CC3)cc2)cc1Nc1nccc(-c2cccnc2)n1` [imatinib, imatinib mesylate]: the Cytotoxicity result in the series with MB231-Bo cancer cells and in the series with 3T3 fibroblast cells was “did not show any cytotoxicity” each time. In addition, in series [2], the “Expression of 9 DNA repair genes (PRKDC, LIG4, MPG, ACTB, NEIL2, MLH1, RPA3, ATXN3, ERCC5)” value was “significantly up-regulated”. Also, the “Expression of 11 DNA repair genes (MMS19, LIG4, B2M, RFC1, PARP2, BRCA2, TREX1, XPC, RAD23A, MUTYH, APEX1)” value in series [3] is recorded as “significantly up-regulated”.
